Laboratory results taken from article PMC7619385 (ACS infectious diseases, 2025).

biological target: NLuc::LmxCLK1 (Leishmania mexicana, UniProt E9AMP2); assay: cell-based; format: cell-based; conditions: 10 µM compound, tracer SV366, promastigotes
Procedure, shortened: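 NanoBRET tracer displacement in live cells expressing NLuc-tagged CLK1, test compounds at 10 µM fixed, 1% DMSO final. Acceptor/donor emission (610/460 nm) ratio gives mBRET, converted to blank-corrected probe occupancy (%); probe KD from single-site saturation binding fits.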

Point of comparison: `COc1ccc2c(c1)c(C1=C(c3c[nH]c4ccccc34)C(=O)NC1=O)cn2CCCN(C)C` [Go 6983], “Target occupancy Run 1” value -11.0%. Against it:
- COC(=O)c1ccc2c(c1)NC(=O)/C2=C(\Nc1ccc(N(C)C(=O)CN2CCN(C)CC2)cc1)c1ccccc1 [Nintedanib (BIBF 1120)] — higher, -1.8%
- COc1cc2ncnc(Nc3ccc(O)c(Br)c3)c2cc1OC [WHI-P154] — higher, 7.3%
- Cc1ccc(S(=O)(=O)/C=C/C#N)cc1 [BAY 11-7082] — lower, -17.1%
- COc1cc(Nc2c(C#N)cnc3cc(OCCCN4CCN(C)CC4)c(OC)cc23)c(Cl)cc1Cl [Bosutinib (SKI-606)] — higher, 7.7%
- CC[C@H](Nc1ncnc2[nH]cnc12)c1nc2cccc(F)c2c(=O)n1-c1ccccc1 [CAL-101 (Idelalisib)] — higher, 0.2%
- O=C(/C=C/c1ccc2ccccc2n1)c1ccncc1 [PFK15] — higher, -10.7%
- NC(=O)c1cccc(-c2cc(Nc3ccc(OC(F)(F)F)cc3)ncn2)c1 [GNF-2] — higher, -8.5%

Point of comparison: `COc1cc(Nc2c(C#N)cnc3cc(OCCCN4CCN(C)CC4)c(OC)cc23)c(Cl)cc1Cl` [Bosutinib (SKI-606)], “Target occupancy Run 2” value -36.0%. Against it:
- COC(=O)c1ccc2c(c1)NC(=O)/C2=C(\Nc1ccc(N(C)C(=O)CN2CCN(C)CC2)cc1)c1ccccc1 [Nintedanib (BIBF 1120)] — higher, -11.3%
- COc1ccc2c(c1)c(C1=C(c3c[nH]c4ccccc34)C(=O)NC1=O)cn2CCCN(C)C [Go 6983] — higher, -14.1%
- COc1cc2ncnc(Nc3ccc(O)c(Br)c3)c2cc1OC [WHI-P154] — higher, -12.9%
- Cc1ccc(S(=O)(=O)/C=C/C#N)cc1 [BAY 11-7082] — higher, -14.7%
- CC[C@H](Nc1ncnc2[nH]cnc12)c1nc2cccc(F)c2c(=O)n1-c1ccccc1 [CAL-101 (Idelalisib)] — higher, 0.1%
- O=C(/C=C/c1ccc2ccccc2n1)c1ccncc1 [PFK15] — higher, -9.2%
- NC(=O)c1cccc(-c2cc(Nc3ccc(OC(F)(F)F)cc3)ncn2)c1 [GNF-2] — higher, -14.2%

same assay, conditions: 10 µM compound, tracer SV366, promastigotes, mean of two experiments

Point of comparison: `COc1cc2ncnc(Nc3ccc(O)c(Br)c3)c2cc1OC` [WHI-P154], “Target occupancy Average” value -2.8%. Against it:
- COC(=O)c1ccc2c(c1)NC(=O)/C2=C(\Nc1ccc(N(C)C(=O)CN2CCN(C)CC2)cc1)c1ccccc1 [Nintedanib (BIBF 1120)] — lower, -6.6%
- COc1ccc2c(c1)c(C1=C(c3c[nH]c4ccccc34)C(=O)NC1=O)cn2CCCN(C)C [Go 6983] — lower, -12.6%
- Cc1ccc(S(=O)(=O)/C=C/C#N)cc1 [BAY 11-7082] — lower, -15.9%
- COc1cc(Nc2c(C#N)cnc3cc(OCCCN4CCN(C)CC4)c(OC)cc23)c(Cl)cc1Cl [Bosutinib (SKI-606)] — lower, -14.2%
- CC[C@H](Nc1ncnc2[nH]cnc12)c1nc2cccc(F)c2c(=O)n1-c1ccccc1 [CAL-101 (Idelalisib)] — higher, 0.1%
- O=C(/C=C/c1ccc2ccccc2n1)c1ccncc1 [PFK15] — lower, -10.0%
- NC(=O)c1cccc(-c2cc(Nc3ccc(OC(F)(F)F)cc3)ncn2)c1 [GNF-2] — lower, -11.3%

biological target: T1, LmxCLK1 (Leishmania mexicana, UniProt E9AMP2); assay: biochemical; format: binding; conditions: not given
T1 sequence (E9AMP2 1-422): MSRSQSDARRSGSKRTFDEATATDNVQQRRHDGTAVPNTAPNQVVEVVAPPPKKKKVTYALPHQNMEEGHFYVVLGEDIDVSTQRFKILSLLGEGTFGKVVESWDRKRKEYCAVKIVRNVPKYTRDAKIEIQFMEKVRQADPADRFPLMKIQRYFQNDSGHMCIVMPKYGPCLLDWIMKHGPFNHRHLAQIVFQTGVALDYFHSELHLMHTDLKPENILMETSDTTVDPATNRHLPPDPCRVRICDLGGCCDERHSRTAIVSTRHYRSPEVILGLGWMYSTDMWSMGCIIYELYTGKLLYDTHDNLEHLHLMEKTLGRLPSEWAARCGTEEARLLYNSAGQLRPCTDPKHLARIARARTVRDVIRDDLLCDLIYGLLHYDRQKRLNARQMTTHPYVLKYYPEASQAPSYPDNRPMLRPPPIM

`O=C(/C=C/c1ccc2ccccc2n1)c1ccncc1` [PFK15] showed a ΔTm Average of 0.1 °C.

For `O=C(/C=C/c1ccc2ccccc2n1)c1ccncc1` [PFK15], the ΔTm Run 1 was 0.2 °C.

`O=C(/C=C/c1ccc2ccccc2n1)c1ccncc1` [PFK15] gave a ΔTm Run 2 of 0.1 °C.

With `NC(=O)c1cccc(-c2cc(Nc3ccc(OC(F)(F)F)cc3)ncn2)c1` [GNF-2] the “ΔTm Average” value was -0.2.

For `NC(=O)c1cccc(-c2cc(Nc3ccc(OC(F)(F)F)cc3)ncn2)c1` [GNF-2], the “ΔTm Run 1” value was -0.2.

For `NC(=O)c1cccc(-c2cc(Nc3ccc(OC(F)(F)F)cc3)ncn2)c1` [GNF-2], the “ΔTm Run 2” value was -0.3.

same assay, conditions: DSF, 10 µM compound, 2 µM LmxCLK1, Run 1

Point of comparison: `COC(=O)c1ccc2c(c1)NC(=O)/C2=C(\Nc1ccc(N(C)C(=O)CN2CCN(C)CC2)cc1)c1ccccc1` [Nintedanib (BIBF 1120)], “ΔTm Run 1” value 0.3 °C. Against it:
- COc1ccc2c(c1)c(C1=C(c3c[nH]c4ccccc34)C(=O)NC1=O)cn2CCCN(C)C [Go 6983] — higher, 0.6 °C
- COc1cc2ncnc(Nc3ccc(O)c(Br)c3)c2cc1OC [WHI-P154] — lower, 0.1 °C
- Cc1ccc(S(=O)(=O)/C=C/C#N)cc1 [BAY 11-7082] — lower, -0.4 °C
- COc1cc(Nc2c(C#N)cnc3cc(OCCCN4CCN(C)CC4)c(OC)cc23)c(Cl)cc1Cl [Bosutinib (SKI-606)] — higher, 0.5 °C
- CC[C@H](Nc1ncnc2[nH]cnc12)c1nc2cccc(F)c2c(=O)n1-c1ccccc1 [CAL-101 (Idelalisib)] — lower, -0.2 °C

same assay, conditions: DSF, 10 µM compound, 2 µM LmxCLK1, Run 2

Point of comparison: `COC(=O)c1ccc2c(c1)NC(=O)/C2=C(\Nc1ccc(N(C)C(=O)CN2CCN(C)CC2)cc1)c1ccccc1` [Nintedanib (BIBF 1120)], “ΔTm Run 2” value 0.2 °C. Against it:
- COc1ccc2c(c1)c(C1=C(c3c[nH]c4ccccc34)C(=O)NC1=O)cn2CCCN(C)C [Go 6983] — lower, 0.0 °C
- COc1cc2ncnc(Nc3ccc(O)c(Br)c3)c2cc1OC [WHI-P154] — lower, 0.1 °C
- Cc1ccc(S(=O)(=O)/C=C/C#N)cc1 [BAY 11-7082] — lower, -0.2 °C
- COc1cc(Nc2c(C#N)cnc3cc(OCCCN4CCN(C)CC4)c(OC)cc23)c(Cl)cc1Cl [Bosutinib (SKI-606)] — higher, 0.6 °C
- CC[C@H](Nc1ncnc2[nH]cnc12)c1nc2cccc(F)c2c(=O)n1-c1ccccc1 [CAL-101 (Idelalisib)] — lower, -0.2 °C

same assay, conditions: DSF, 10 µM compound, 2 µM LmxCLK1, mean of two runs

Point of comparison: `COc1ccc2c(c1)c(C1=C(c3c[nH]c4ccccc34)C(=O)NC1=O)cn2CCCN(C)C` [Go 6983], “ΔTm Average” value 0.3 °C. Against it:
- COC(=O)c1ccc2c(c1)NC(=O)/C2=C(\Nc1ccc(N(C)C(=O)CN2CCN(C)CC2)cc1)c1ccccc1 [Nintedanib (BIBF 1120)] — lower, 0.2 °C
- COc1cc2ncnc(Nc3ccc(O)c(Br)c3)c2cc1OC [WHI-P154] — lower, 0.1 °C
- Cc1ccc(S(=O)(=O)/C=C/C#N)cc1 [BAY 11-7082] — lower, -0.3 °C
- COc1cc(Nc2c(C#N)cnc3cc(OCCCN4CCN(C)CC4)c(OC)cc23)c(Cl)cc1Cl [Bosutinib (SKI-606)] — higher, 0.5 °C
- CC[C@H](Nc1ncnc2[nH]cnc12)c1nc2cccc(F)c2c(=O)n1-c1ccccc1 [CAL-101 (Idelalisib)] — lower, -0.2 °C
